Test results as given in patent publication US8460718B2, “Synergistic compositions and methods” (LycoRed Ltd., priority 2011, dated 2013).

Tests used:
[1] = in animals; cited from earlier work
[2] = system: LNCaP, human androgen dependent prostate cancer cells; test: LNCaP cell proliferation, [3H]thymidine incorporation assay; assay type: cell-based; conditions: LNCaP cells stimulated by 1 nM DHT, treated 3 days; for cell growth inhibition (thymidine incorporation), phytosterol alone: phytosterol alone 0-50 μM
Experimental: In these experiments, LNCaP cells were preincubated for 24 hours in 0.5% serum and then growth (quantified by measuring thymidine incorporation) was stimulated by 1 nM DHT. Stimulated cells were treated for 3 days with the indicated concentration of the phytosterols alone, or in combination with 0.4 μM lycopene. Data presented are the mean±SE of 2-3 independent experiments performed in quadruplicates.
Cell culture and cell proliferation assay: LNCaP, human androgen dependent prostate cancer cells, were purchased from American Type Culture Collection (Rockwell, Md.). Cells were grown in RPMI1640 containing 0.6 μg/ml insulin. All culture media were supplemented with L-glutamine (2 mM), penicillin (100 U/ml), streptomycin (0.1 mg/ml), nystatin (12.5 μg/ml), and 10% FCS. Cells were seeded in medium containing 3% FCS or 3% DCC phenol red free medium and 10 mM HEPES onto 96- and 6-multiwell plates (4-7×10^3 and 1.7×10^5 cells/well, respectively). One day later, the medium was changed to 0.5% FCS or 0% medium for an additional one day of incubation. Then the medium was changed to one containing the micronutrients (phytosterols, carotenoids, phospholipids, etc.) at the indicated concentrations and incubation was continued for 1-3 days. In order to assure that the agent was continuously present during prolonged incubation, the medium was replaced daily with one containing fresh carotenoids. Lycopene was dissolved in tetrahydrofuran at a concentration of 2 mM and stored at −20° C. Immediately before the experiment, the stock solution was added to the cell culture medium. The final concentration of lycopene in the medium was measured by spectrophotometry after extraction in 2-propanol and n-hexane:dichloromethane [3H]thymidine incorporation assay was performed in 96-multiwell plates. Cells were incubated with 1.25-2.50 uCi/well of [3H]thymidine (specific radioactivity 5 mCi/mmol in μCi/well) for one to four hours. The nucleotide incorporation was stopped by addition of unlabeled thymidine (0.5 μmol). The cells were then trypsinized and collected on a glass-fiber filter using a cell harvester (Inotech). Radioactivity was determined by a radioactive image analyzer (BAS 1000, Fuji).
All procedures were performed under dim light in order to prevent carotenoid degradation.
FIGS. 1A-1E. LNCaP cell were preincubated for 24 hours in 0.5% serum and then growth (thymidine incorporation) was stimulated by 1 nM DHT. Stimulated cells were treated for 3 days with the indicated concentrations of the phytosterols alone, or in combination with 0.4 μM Lycopene. Data presented are the mean±SE of 2-3 independent experiments performed in quadruplicates.

[3] = system: MDA-MB-231 human breast cancer; conditions: MDA-MB-231, 16 μM; cited from earlier work
[4] = system: MCF-7 human breast cancer; conditions: MCF-7, 0.001 to 150 μM; cited from earlier work
[5] = system: phorbol esters (PMA)-stimulated macrophages (RAW 264.7 cells); conditions: cited from earlier work
HT-29 human colon cancer = conditions: HT-29, 16 μM; cited from earlier work
[6] = system: LNCaP human prostate cancer; conditions: 16 μM; cited from earlier work
[7] = in vivo; cited from earlier work
[8] = RAW 264.7, effects 3-6 hours after preincubation

For `CC[C@H](/C=C/[C@@H](C)[C@H]1CC[C@H]2[C@@H]3CC=C4C[C@@H](O)CC[C@]4(C)[C@H]3CC[C@]12C)C(C)C` [Stigmasterol], the intestinal absorption [1] is given as “only absorbed minimally” and the “cell growth inhibition (thymidine incorporation), phytosterol alone” value (from here on “cell growth inhibition … phytosterol alone”) [2] is given as “did not have any effect on cell growth inhibition”.

In the case of `CC(C)[C@H](C)CC[C@@H](C)[C@H]1CC[C@H]2[C@@H]3CC=C4C[C@@H](O)CC[C@]4(C)[C@H]3CC[C@]12C` [Campesterol], the intestinal absorption [1] is given as “better absorbed than β-sitosterol”, the growth [3] is given as “unchanged” and the “cell growth inhibition … phytosterol alone” value [2] is given as “did not have any effect on cell growth inhibition”.

In the case of `CC[C@H](CC[C@@H](C)[C@H]1CC[C@H]2[C@@H]3CC=C4C[C@@H](O)CC[C@]4(C)[C@H]3CC[C@]12C)C(C)C` [β-sitosterol], the growth [4] is given as “increase”, the “H2O2 production induced by PMA” value [5, 8] is given as “decrease” and the “O2(−) production induced by PMA” value [5, 8] is given as “decrease”. The “NO release induced by PMA” value ([5]; RAW 264.7) was “reduced”, the “inducible nitric oxide synthase (iNOS) levels” value ([5]; RAW 264.7) was “impairment” and the growth (HT-29 human colon cancer) was “inhibition”. For the same compound, the PSA levels [6] was “reduced PSA”, the growth [6] was “inhibition;” and the growth [3] was “inhibition”. For the same compound, the “cell growth inhibition … phytosterol alone” value [2] was “inhibited prostate cancer cell proliferation in a dose dependent manner”.

With `CC(C)=CCC/C(C)=C/C=C/C(C)=C/C=C/C(C)=C/C=C/C=C(C)/C=C/C=C(C)/C=C/C=C(\C)CCC=C(C)C` [lycopene] the “cell growth inhibition (thymidine incorporation), lycopene alone” value ([2]; 0.4 μM lycopene alone) was “did not inhibit proliferation”.

In the case of `CC(C)CCC[C@@H](C)[C@H]1CC[C@H]2[C@@H]3CC=C4C[C@@H](O)CC[C@]4(C)[C@H]3CC[C@]12C` [cholesterol, reference compound], the absorption [7] is listed as 35-70% and the growth [3] is listed as “unchanged”.
